Assay results: patent US20210393558A1, “METHODS AND COMPOSITIONS FOR PREVENTION AND TREATMENT OF PRESSURE ULCERS” (TECHNION RESEARCH AND DEVELOPMENT FOUNDATION LTD., priority 2017, published 2021)

Columns and labels:
[1] = 3%-cream applied on the skin, after 24 hours; cited from earlier work
C2C12 myoblasts [2] = assay: Membrane permeability (FITC-labeled 4 kDa dextran uptake, FACS) under damage-level 12% strain; assay type: cell-based, murine
Description: (§1) For each experiment, 300,000 cells were cultured 24 hours in parallel on 2-4 bioflexcell collagen-coated 6-well plates (Flexcell Inc., North Carolina). On the day of the experiment the cell growth media (with 0/1 mM NaPy) was replaced with media supplemented with different NaPy concentrations (0, 1 or 5 mM) and cells were incubated for 4 hours; this constitutes the pre-treatment of the cells. A four-hour pre-treatment was chosen as that is a clinically relevant time-scale during preparation e.g. before planned surgical procedures.
(§2) Each 6-well plate contained two wells with each of the three NaPy pre-treatment concentrations. After 4 hours, all but one of the bioflexcell plates were simultaneously subjected to damaging-level, sustained strain-loads of 12% radial stretching for 3 hours and one plate in each experiment was not stretched for control. […] Next, cells were centrifuged (900 rpm for 5 min) and resuspended in 0.5 ml of PBS within 12×75 mm polystyrene test tubes for use with fluorescence activated cell sorting (FACS).
(§3) Permeability of the plasma membrane was quantified by cell uptake of the small (4 kDa) FITC-labeled Dextran. Fluorescence intensity changes due to internalized FITC-labeled Dextran and auto fluorescence of over 20,000 cells per sample was measured using a fluorescence-activated cell sorting (FACS) Calibur system (BD Biosciences, New Jersey) with the fluorescence channel. […] For each pre-treatment (and growth media) condition 4 measurements were collected: strain-loaded cells with or without added dextran, and unstrained control cells with or without dextran; samples without dextran provide a control for native cell auto-fluorescence (AF). The percent change in dextran uptake is calculated by the mean value of the strained sample relative to the unstrained samples, after subtracting the auto-fluorescence for each. […]

NIH3T3 fibroblasts [3] = assay: as above; assay type: cell-based, murine; conditions: increasing concentrations of NaPy pre-treatment (0, 1, 5 mM, 4 hours), 12% strain 3 hrs
Description: as §1, §2, §3

C2C12 myoblasts [4] = assay: Gap closure of damaged monolayers with low/medium-level stretching; assay type: cell-based, Mouse
Description: (§4) Mouse myoblast or fibroblast cells (1×10^6 per well, previously grown media containing 1 mM NaPy) were seeded 1-3 days prior to performing a stretching experiment in a six-well (31-mm diameter) culture plate with an elastic, 0.51-mm thick, transparent and collagen-coated substrata bottom (Flexcell Inc., Burlington, N.C.). Cells were grown on the stretchable-bottom plate until a confluent monolayer had formed. The plates with cells were then mounted onto our stretching apparatus and radial stretching to tensile strains of 3% or 6% or 0% (no-stretch) control was applied Immediately following stretching, compressive deformation damage was induced in each monolayer using a rigid optic fiber (˜350 μm diameter). Cells at the center of each well were crushed, inducing an approximately circular cell-damage area with varying sizes (0.05-0.5 mm^2). Media was replaced to remove any cell debris and the fresh media contained varying concentrations of sodium pyruvate: 0, 1 or 5 mM. Then the time-dependent gap closure was evaluated to reveal kinematic features The stretching apparatus was mounted in the motorized microscope stage to facilitate for time-lapse imaging of progression of the gap closure. Cell viability throughout the prolonged experiments was ensured by maintaining 37° C., 5% CO2 and high humidity, using an incubator that enclosed the microscope (Life Imaging Services, Basel, Switzerland).
(§5) Time-lapse imaging was performed using a fully motorized, inverted fluorescence microscope (Olympus IX81, Tokyo, Japan) with a custom MATLAB 2012b (The MathWorks, Natick, Mass.) graphical user interface (GUI) module to automatically control lens positioning and collect images of the gap every 10 minutes for up to 24 hours. Images were taken using an XR Mega-10AWCL camera (Stanford Photonics Inc., Palo Alto, Calif.), using a 10×/NA 0.3 long working-distance, air immersion objective lens at a final magnification of 646.8 nm/pixel. A custom algorithm in MATLAB 2012b was used to automatically analyze the time-progression images of the gap area closure and quantify cell migration and gap closure progression, as described in Topman et al. (Micron 51:9-12; 2012); Toume et al. Int Wound J 14:698-703; 2017). Briefly, the time-dependent area was fit to a Richard's function, which is an asymmetric sigmoid, by minimizing the mean squared error. Using the fitted curve, the maximum migration rate was calculated, which is the maximal slope of the area vs. time, Richards fit. The normalized maximum migration rate was obtained by dividing the maximum migration rate by the initial gap area. In addition, the time for 90% gap area closure, which is indicative of the end of the en masse cell migration regime was obtained (Topman et al. 2012; Med Eng Phys 34:225-232).
(§6) Results of the different conditions were compared using a two-way analysis of variance (ANOVA) for unequal length samples; Statistical analysis was performed in MATLAB. The interaction parameter was found significant, thus the interactions between the sodium pyruvate concentration and the stretching level and were important; in cases where only the interaction parameter the interaction is considered ‘simple’ by typical definitions in statistical analysis. A one-way ANOVA was also performed in conjunction with post-hoc Tukey-Kramer tests to identify statistically significant differences levels of sodium pyruvate for each level of stretching and vice versa. A P-value lower than 0.05 was considered significant.
(§7) Both tested cell types, C2C12 myoblasts and NIH3T3 fibroblasts were cultured in media with 1 mM sodium pyruvate up to the time of infliction of compressive deformation damage (micro-gap formation) and concurrent application of radial stretching. […]

NIH3T3 fibroblasts [5] = assay: as above; assay type: cell-based, Mouse; conditions: 0% stretching, post-injury NaPy 0, 1 or 5 mM
Description: as §4, §5, §6, §7

[6] = cited from earlier work
[7] = group given NaPy eye drops, 2 hours prior to extraction; control 0.145+/−0.06 mM; cited from earlier work
[8] = 1 mM NaPy with 3% stretching vs no NaPy
[9] = 5 mM NaPy with 3% stretching vs no NaPy
[10] = adopted from the literature, model input

Compound	transdermal flux [1]	cell damage-induced uptake of dextran relative to control (C2C12 myoblasts [2]; NaPy pre-treatment 0, 1, 5 mM for 4 hours, then 12% sustained stretch 3 hrs)	strain-damage induced membrane poration (C2C12 myoblasts [2]; cultured in media containing 1 mM NaPy, pre-treated with 5 mM NaPy, 12% strain 3 hrs)	damage to membrane integrity (uptake relative to control) (NIH3T3 fibroblasts [3])	gap closure rate (C2C12 myoblasts [4]; 0% stretching, post-injury NaPy 0, 1 or 5 mM)	normalized gap-closure rate (C2C12 myoblasts [4]; 1 mM NaPy post-injury with 3% stretching (16.3 without NaPy))	time to reach 90% gap coverage (C2C12 myoblasts [4]; 1 mM NaPy with 3% stretching (9.2 hrs without NaPy))	decrease of time to reach 90% gap coverage (C2C12 myoblasts [4]; [8])	increase of normalized gap-closure rate (C2C12 myoblasts [4]; [8])	normalized gap-closure rate (C2C12 myoblasts [4]; 5 mM NaPy post-injury with 3% stretching (16.3 without NaPy))	time to reach 90% gap coverage (C2C12 myoblasts [4]; 5 mM NaPy with 3% stretching (9.2 hrs without NaPy))	decrease of time to reach 90% gap coverage (C2C12 myoblasts [4]; [9])	increase of normalized gap-closure rate (C2C12 myoblasts [4]; [9])	gap closure (C2C12 myoblasts [4]; 3% strain combined with post-injury exogenous NaPy supplement (1 or 5 mM))	gap closure rate (NIH3T3 fibroblasts [5])	Solubility in the aqueous phase of the dressing and tissues [6, 10]	diffusivity in the aqueous phase of the dressing and tissues [6, 10]	free diffusivity in the aqueous phase of the dressing and tissues [6, 10]	log Ko/W ([6]; input of the Kp equation)	level of NaPy in corneal tissue [7]
O=C(O)Cc1ccccc1Nc1c(Cl)cccc1Cl [Diclofenac Sodium]	0.321-0.943 nmol/cm^2·h	–	–	–	–	–	–	–	–	–	–	–	–	–	–	–	–	–	–	–
CC(=O)C(=O)[O-].[Na+] [NaPy, sodium pyruvate]	–	a reduction was observed in the cell damage-induced uptake of dextran relative to control that is proportional to the NaPy concentration	a reduction was observed in the strain-damage induced membrane poration to insignificant levels	reduced damage to membrane integrity	unaffected	20.5 % area/hr	7.3 h	21%	26%	23.7 % area/hr	6.3 h	31%	46%	successfully accelerated gap closure in a concentration dependent and statistically significant manner	unaffected	100 mg/mL	0.0005 mm^2/s	0.001 mm^2/s	−5.05	350 to 525 µM
